The test addresses C-Raf FL (full length CRAF with Y340E and Y341E activating mutations, co-expressed with h14-3-3 zeta) (Homo sapiens (Human), UniProt P04049, Y340E/Y341E). As to the kind of experiment: In vitro Raf activity determination, AlphaScreen p-MEK readout, c-Raf (C-Raf FL). The following applies: c-Raf approximately 4 nM, ATP 1 μM, pre-incubation 60 minutes, reaction 1 hour. Type of test: biochemical. An outline of the steps:
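Full-length C-Raf (~4 nM) pre-incubated 60 min at room temperature with compound and kinase-dead biotinylated MEK1 (~10 nM) in Tris pH 7.5, 15 mM MgCl2, BSA, DTT. Reaction started with 1 μM ATP and run 1 h at room temperature. Phospho-MEK detected by AlphaScreen with anti-p-MEK antibody.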
In general terms: Alpha assays give light when donor and acceptor beads are brought close together.

In general, IC50 refers to the concentration at which inhibition is half-maximal.

Chain of C-Raf FL (full length CRAF with Y340E and Y341E activating mutations, co-expressed with h14-3-3 zeta) (P04049 whole entry Y340E/Y341E): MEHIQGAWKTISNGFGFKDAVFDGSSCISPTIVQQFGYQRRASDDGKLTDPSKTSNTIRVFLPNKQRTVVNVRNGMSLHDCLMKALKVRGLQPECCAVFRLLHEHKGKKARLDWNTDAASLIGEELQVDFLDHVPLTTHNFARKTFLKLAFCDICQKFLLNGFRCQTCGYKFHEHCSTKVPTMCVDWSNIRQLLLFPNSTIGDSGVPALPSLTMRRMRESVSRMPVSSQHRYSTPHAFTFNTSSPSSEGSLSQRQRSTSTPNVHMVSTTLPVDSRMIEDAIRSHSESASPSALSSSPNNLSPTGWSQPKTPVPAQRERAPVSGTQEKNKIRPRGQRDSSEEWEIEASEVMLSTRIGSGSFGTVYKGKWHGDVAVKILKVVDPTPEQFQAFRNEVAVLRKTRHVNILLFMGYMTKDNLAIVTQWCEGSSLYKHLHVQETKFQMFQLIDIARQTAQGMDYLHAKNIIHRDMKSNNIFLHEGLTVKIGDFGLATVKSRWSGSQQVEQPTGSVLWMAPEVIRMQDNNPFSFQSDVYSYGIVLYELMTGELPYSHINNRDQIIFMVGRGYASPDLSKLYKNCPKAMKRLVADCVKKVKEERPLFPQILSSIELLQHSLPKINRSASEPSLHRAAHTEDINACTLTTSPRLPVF
Chain of C-Raf FL (full length CRAF with Y340E and Y341E activating mutations, co-expressed with h14-3-3 zeta) (P63104 whole entry partner): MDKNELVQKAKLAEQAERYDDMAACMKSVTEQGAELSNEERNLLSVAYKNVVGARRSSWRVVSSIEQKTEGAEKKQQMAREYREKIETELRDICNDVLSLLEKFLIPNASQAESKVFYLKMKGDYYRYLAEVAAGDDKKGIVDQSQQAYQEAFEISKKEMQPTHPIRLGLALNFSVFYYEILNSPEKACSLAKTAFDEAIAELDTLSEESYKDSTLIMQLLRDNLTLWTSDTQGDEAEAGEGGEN

The molecule `Cc1ccc(NC(=O)c2ccnc(C(F)(F)F)c2)cc1-c1cnc2c(c1)C1C3COCC3C1C(=O)N2CCO` (stereo not drawn) [Example 281, N-(3-(5-(2-hydroxyethyl)-6-oxo-5,6,6a,6b,7,9,9a,9b-octahydrofuro[3′,4′: 3,4]cyclobuta[1,2-c][1,8]naphthyridin-2-yl)--4-methylphenyl)-2-(trifluoromethyl) isonicotinamide] had an IC50 of 0.2 nM. This counts as sub-nanomolar. For `Cc1ccc(NC(=O)c2ccnc(C(F)(F)F)c2F)cc1-c1cnc2c(c1)C1C3COCC3C1C(=O)N2CCO` (stereo not drawn) [Example 283, 3-fluoro-N-(3-(5-(2-hydroxyethyl)-6-oxo-5,6,6a,6b,7,9,9a,9b-octahydrofuro[3′,4′: 3,4]cyclobuta[1,2-c][1,8]naphthyridin-2-yl)-4-methylphenyl)-2-(trifluoromethyl)-2-isonicotinamide], the 50% inhibitory concentration (IC50) turned out to be 0.2 nM. The molecule `Cc1ncc(NC(=O)c2cccc(C(F)(F)F)c2)cc1-c1cnc2c(c1)C1CCOCCC1C(=O)N2CCO` (stereo not drawn) [Example 285, N-(5-(7-(2-hydroxyethyl)-6-oxo-1,2,4,5,5a,6,7,11b-octahydrooxepino [4,5-c][1,8]naphthyridin-10-yl)-6-methylpyridin-3-yl)-3-(trifluoromethyl) benzamide] came in with an IC50 of 0.1 nM. In the case of `Cc1ccc(NC(=O)c2ccnc(C(C)(F)F)c2)cc1-c1cnc2c(c1)[C@@H]1CCOC[C@H]1C(=O)N2CC(C)(C)O` [Example 287, 2-(1,1-difluoroethyl)-N-(3-((4aS,10bR)-6-(2-hydroxy-2-methylpropyl)-5-oxo-2,4,4a,5,6,10b-hexahydro-1H-pyrano[3,4-c][1,8]naphthyridin-9-yl)-4-methylphenyl) isonicotinamide] it was 0.2 nM; in that of `Cc1ccc(NC(=O)c2ccnc(C(F)(F)F)c2)cc1-c1cnc2c(c1)N1CCOC[C@H]1CC(=O)N2CC(C)(C)O` [Example 288, (R)-N-(3-(7-(2-hydroxy-2-methylpropyl)-6-oxo-2,4,4a,5,6,7-hexahydro-1H-[1,4]oxazino[4,3-d]pyrido[2,3-b][1,4]diazepin-10-yl)-4-methylphenyl)-2-(trifluoromethyl) isonicotinamide], 0.9 nM. Turning to `Cc1ccc(NC(=O)c2ccnc(C(C)(F)F)c2)cc1-c1cnc2c(c1)N1CCOC[C@H]1CC(=O)N2CC(C)(C)O` [Example 289, (R)-2-(1,1-difluoroethyl)-N-(3-(7-(2-hydroxy-2-methylpropyl)-6-oxo-2,4,4a,5,6,7-hexahydro-1H-[1,4]oxazino[4,3-d]pyrido[2,3-b][1,4]diazepin-10-yl)-4-methylphenyl) isonicotinamide], the IC50 was determined as 0.9 nM. As for `Cc1ccc(NC(=O)c2ccnc(C(F)(F)F)c2F)cc1-c1cnc2c(c1)N1CCOC[C@H]1CC(=O)N2CC(C)(C)O` [Example 290, (R)-3-fluoro-N-(3-(7-(2-hydroxy-2-methylpropyl)-6-oxo-2,4,4a,5,6,7-hexahydro-1H-[1,4]oxazino[4,3-d]pyrido[2,3-b][1,4]diazepin-10-yl)-4-methylphenyl)-2-(trifluoromethyl) isonicotinamide], the IC50 amounted to 1 nM. For `CCN1C[C@@H]2COCC[C@H]2c2cc(-c3cc(NC(=O)c4ccnc(C(F)(F)F)c4)ccc3C)cnc21` [Example 291, N-(3-((4aR, 10bR)-6-ethyl-2,4,4a,5,6,10b-hexahydro-1H-pyrano[3,4-c][1,8]naphthyridin-9-yl)-4-methylpheny)-2-(trifluoromethyl) isonicotinamide], inhibition was half-maximal at 0.1 nM (IC50). In turn, `CCN1C[C@@H]2COCC[C@H]2c2cc(-c3cc(NC(=O)c4ccnc(C(C)(F)F)c4)ccc3C)cnc21` [Example 292, 2-(1,1-difluoroethyl)-N-(3-((4aR, 10bR)-6-ethyl-2,4,4a,5,6,10b-hexahydro-1H-pyrano[3,4-c][1,8]naphthyridin-9-yl)-4-methylphenyl) isonicotinamide] gave an IC50 of 0.1 nM. This lies in the sub-nanomolar range. Molecule `CCN1C[C@@H]2COCC[C@H]2c2cc(-c3cc(NC(=O)c4ccnc(C(F)(F)F)c4F)ccc3C)cnc21` [Example 293, N-(3-((4aR, 10bR)-6-ethyl-2,4,4a,5,6,10b-hexahydro-1H-pyrano[3,4-c][1,8]naphthyridin-9-yl)-4-methylphenyl)-3-fluoro-2-(trifluoromethyl) isonicotinamide] returned an IC50 of 0.1 nM. Molecule `CCN1C[C@@H]2COCC[C@H]2c2cc(-c3cc(NC(=O)c4cccc(C(F)(F)F)c4F)cnc3C)cnc21` [Example 294, N-(5-((4aR, 10bR)-6-ethyl-2,4,4a,5,6,10b-hexahydro-1H-pyrano[3,4-c][1,8]naphthyridin-9-yl)-6-methylpyridin-3-yl)-2-fluoro-3-(trifluoromethyl) benzamide] displayed an IC50 of 0.1 nM. The molecule `CCN1C[C@@H]2COCC[C@H]2c2cc(-c3cc(NC(=O)c4cccc(C(F)(F)F)c4)cnc3C)cnc21` [Example 295, N-(5-((4aR, 10bR)-6-ethyl-2,4,4a,5,6,10b-hexahydro-1H-pyrano[3,4-c][1,8]naphthyridin-9-yl)-6-methylpyridin-3-yl)-3-(trifluoromethyl) benzamide] displayed an IC50 of 0.1 nM. The value for `CCN1C(=O)OC2COCCC2c2cc(-c3cc(NC(=O)c4cccc(C(F)(F)F)c4)cnc3C)cnc21` [Example 296, N-(5-((4aS,11bR- cis)-7-ethyl-6-oxo-2,4,4a,6,7,11b-hexahydro-1H-pyrano[4,3-f]pyrido[2,3-d][1,3]oxazepin-10-yl)-6-methylpyridin-3-yl)-3-(trifluoromethyl) benzamide] was 1.8 nM; that for `CCN1C(=O)OC2COCCC2c2cc(-c3cc(NC(=O)c4ccnc(C(F)(F)F)c4)ccc3C)cnc21` [Example 297, N-(3-((4aS,11bR- cis)7-ethyl-6-oxo-2,4,4a,6,7,11b-hexahydro-1H-pyrano[4,3-f]pyrido[2,3-d][1,3]oxazepin-10-yl)-4-methylphenyl)-2-(trifluoromethyl) isonicotinamide] was 0.2 nM; that for `CCN1C(=O)OC2COCCC2c2cc(-c3cc(NC(=O)c4cccc(C(F)(F)F)c4)cnc3C)cnc21` [Example 298, N-(5-((4aS,11bR- cis)-7-ethyl-6-oxo-2,4,4a,6,7,11b-hexahydro-1H-pyrano[4,3-f]pyrido[2,3-d][1,3]oxazepin-10-yl)-6-methylpyridin-3-yl)-3-(trifluoromethyl) benzamide] was 0.3 nM. In turn, `CCN1C(=O)OC2COCCC2c2cc(-c3cc(NC(=O)c4ccnc(C(F)(F)F)c4F)ccc3C)cnc21` [Example 299, N-(3-((4aS,11bR- cis)-7-ethyl-6-oxo-2,4,4a,6,7,11b-hexahydro-1H-pyrano[4,3-f]pyrido[2,3-d][1,3]oxazepin-10-yl)-4-methylphenyl)-3-fluoro-2-(trifluoromethyl) isonicotinamide] yielded an IC50 of 0.1 nM. Turning to `CCN1C(=O)OC2COCCC2c2cc(-c3cc(NC(=O)c4cccc(C(F)(F)F)c4F)cnc3C)cnc21` [Example 300, N-(5-((4aS,11bR- cis)-7-ethyl-6-oxo-2,4,4a,6,7,11b-hexahydro-1H-pyrano[4,3-f]pyrido[2,3-d][1,3]oxazepin-10-yl)-6-methylpyridin-3-yl)-2-fluoro-3-(trifluoromethyl) benzamide], the IC50 came to 0.2 nM. Molecule `CCN1C(=O)OC2COCCC2c2cc(-c3cc(NC(=O)c4ccnc(C(C)(F)F)c4)ccc3C)cnc21` [Example 302, 2-(1,1-difluoroethyl)-N-(3-((4aS,11bR-cis)-7-ethyl-6-oxo-2,4,4a,6,7,11b-hexahydro-1H-pyrano[4,3-f]pyrido[2,3-d][1,3]oxazepin-10-yl)-methylphenyl) isonicotinamide] registered an IC50 of 0.1 nM. This IC50 lies about 2-fold lower than the previous one. The molecule `CCN1C(=O)[C@@H]2COCC[C@H]2c2cc(-c3cc(NC(=O)c4cncc(C(F)(F)F)c4)ccc3C)cnc21` [Example 303, N-(3-((4aS,10bR)-6-ethyl-5-oxo-2,4,4a,5,6,10b-hexahydro-1H-pyrano[3,4-c][1,8]naphthyridin-9-yl)-4-methylphenyl)-5-(trifluoromethyl) nicotinamide] displayed a 50% inhibitory concentration (IC50) of 0.1 nM. The value for `CCN1C(=O)O[C@H]2COCC[C@@H]2c2cc(-c3cc(NC(=O)c4ccnc(C(F)(F)F)c4F)ccc3C)cnc21` [Example 304, N-(3-((4aR, 11bR)-7-ethyl-6-oxo-2,4,4a,6,7,11b-hexahydro-1H-pyrano[4,3-f]pyrido[2,3-d][1,3]oxazepin-10-yl)-4-methylphenyl)-3-fluoro-2-(trifluoromethyl) isonicotinamide] was 0.5 nM; that for `CCN1C(=O)O[C@H]2COCC[C@@H]2c2cc(-c3cc(NC(=O)c4ccnc(C(F)(F)F)c4)ccc3C)cnc21` [Example 305, N-(3-((4aR,11bR)-7-ethyl-6-oxo-2,4,4a,6,7,11b-hexahydro-1H-pyrano[4,3-f]pyrido[2,3-d][1,3]oxazepin-10-yl)-4-methylphenyl)-2-(trifluoromethyl) isonicotinamide] was 0.3 nM. The value for `Cc1ccc(NC(=O)c2cncc(C(F)(F)F)c2)cc1-c1cnc2c(c1)[C@@H]1CCOC[C@H]1C(=O)N2CCO` [Example 306, N-(3-((4aS,10bR)-6-(2-hydroxyethyl)-5-oxo-2,4,4a,5,6,10b-hexahydro-1H-pyrano[3,4-c][1,8]naphthyridin-9-yl)-4-methylphenyl)-5-(trifluoromethyl) nicotinamide] was 0.1 nM.

With `Cc1ccc(NC(=O)c2ccnc(C(F)(F)F)c2F)cc1-c1cnc2c(c1)[C@@H]1CCOC[C@H]1C(=O)N2CCO` [Example 307, 3-fluoro-N-(3 - ((4aS, 10bR)-6-(2-hydroxyethyl)-5-oxo-2,4,4a,5,6,10b-hexahydro-1H-pyrano[3,4-c][1,8]naphthyridin-9-yl)-4-methylphenyl)-2-(trifluoromethyl) isonicotinamide], inhibition was half-maximal at 0.1 nM (IC50).

The molecule `CCN1C(=O)[C@H]2COCC[C@@H]2c2cc(-c3cc(NC(=O)c4cccc(C(F)(F)F)c4)cnc3C)cnc21` [Example 309, N-(5-((4aR, 10bS)-6-ethyl-5-oxo-1,4,4a,5,6,10b-hexahydro-2H-pyrano[3,4 - c][1,8]naphthyridin-9-yl)-6-methylpyridin-3-yl)-3-(trifluoromethyl) benzamide] registered an IC50 of 0.3 nM.
